From patent US8404696B2, “Quinazoline-2,4-dione derivative, and medical compositions for the prophylaxis and treatment of cranial nerve disease containing the same” (Shin Poong Pharmaceutical Co., Ltd., priority 2008, dated 2013)
Converted amounts (≈) assume the structure as drawn.

Legend:
[1] = tested on: mixed culture of nerve cells-glial cells; assay: Protecting effect on NMDA-induced nerve cell death (LDH release); format: cell-based, ICR mouse; conditions: 100 μM NMDA, LDH release after 24 hours
How it was run: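 Embryonic day-14 ICR mouse cortical neurons seeded on cortical glia, Ara-C-treated, then exposed at day 12–15 for 20 min to 100 μM NMDA with compound at 1 or 2 μg/mL. LDH released 24 h later measured colorimetrically as a cell-death index.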

SH-SY5Y cells [2] = assay: Inhibitory effect on ZnSO4-mediated cytotoxicity (MTT assay); format: cell-based, humans; conditions: compound 50 μg/ml; 600 μM zinc sulfate, 24 hours
Experimental: SH-SY5Y cells were cultured with 3×10^4 cell concentration in 96 well plates, and the compound (50 μg/ml) was treated. After 30 minutes, 600 μM of zinc sulfate was treated to induce toxicity for 24 hours and survival rate of cells was measured by MTT assay.

mouse brain cells = assay: Inhibitory effect on ROS production in brain cells (DCF-DA, NMDA-induced); format: cell-based; conditions: dose suppressing 50% of production of reactive oxygen compared to control, mouse brain cells
Experimental: Oxidative stress was measured to test inhibitory effects on the production of reactive oxygen species (ROS) by using DCF-DA, which is a fluorescent probe. Brain cells were obtained from brain cortex of mouse to prepare cell solution with 2×10^6 cells/ml. Each brain cell was treated with 11 μM of DCF-DA followed by reaction in 37° C., 5% CO2 incubator for an hour. After washing twice, Compound 3 was treated with a concentration of 125 μg/ml and 250 μg/ml. At the same time, 300 μM of NMDA was treated and it was incubated in 37° C., 5% CO2 incubator for 24 hours.
(§1) ROS inhibitory effect of compounds was represented to the dose suppressing 50% of production of reactive oxygen compared to control. […] The activity of superoxide dismutase (SOD) was measured by using a kit acquired in Sigma.

[3] = tested on: superoxide dismutase (SOD); assay: Increase of superoxide dismutase (SOD) activity in mouse brain cells; format: cell-based; conditions: 100 μg/ml
Experimental: as §1

[4] = tested on: pentylentetrazole (PTZ)-induced convulsion; assay: Anti-convulsant effect, pentylentetrazole (PTZ) test; format: in vivo; conditions: 10 mg/kg intraperitoneally, PTZ 80 mg/kg subcutaneously; for mortality rate / Induction percentage of convulsion: (animals/total); for mortality rate: negative control 70(17/23); for Induction percentage of convulsion: negative control 100(23/23); for Initiation time of convulsion: negative control 5.0 ± 0.7; for Duration of convulsion: negative control 46.7 ± 3.3
How it was run: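 Compound was given intraperitoneally at 10 mg/kg before PTZ challenge. The read-outs were time to convulsion onset, time until convulsions fully disappeared, and mortality.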

thoracic aorta of rats = assay: Relaxing effect on thoracic aorta contracted by phenylephrine (organ bath); parameters: species or system rats of SD species; conditions: 67 μg/mL, phenylephrine 0.5 μM, mean n = 3; for inhibition at 67 µg/mL: Rattus norvegicus, read-out: Relaxation percentage
How it was run: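 Thoracic aortic rings (2 mm) from ether-anesthetized male SD rats (250-300 g) were mounted in Krebs buffer gassed with 95% O2/5% CO2 and equilibrated at 1.0 g basal tension for 90 min. After stable contraction with phenylephrine (0.5 μM), compounds were added and relaxation recorded.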

[5] = tested on: middle cerebral artery occlusion (MCAO) model; assay: Anti-stroke effect in middle cerebral artery occlusion (MCAO) model, oral administration before inducing stroke; format: in vivo, rats of SD species; conditions: 2 g/kg po; for Infarcted volume (Mean ± standard deviation): negative control 0.45 ± 0.03
SH-SY5Y cells [6] = assay: Inhibitory effect on H2O2-mediated cytotoxicity (MTT assay); format: cell-based, humans; conditions: 200 μM hydrogen peroxide, 24 hours
Experimental: SH-SY5Y cells that are oriented by nerve cell line from humans were cultured with 3×10^4 cell concentration in 96 well plate, and the sample was treated. After 30 minutes, 200 μM hydrogen peroxide was treated to induce toxicity for 24 hours. After the reaction was completed, the survival rate of cells was measured by MTT assay.

[7] = treatment time 0 (right before inducing ischemic stroke)
[8] = treatment time 1 (an hour before inducing ischemic stroke)

Compound	Inhibitory effect of cell death by NMDA-induced excitable neurotoxicity ([1]; 1 μg/ml compound)	Inhibitory effect of cell death by NMDA-induced excitable neurotoxicity ([1]; 2 μg/ml compound)	inhibitory percentage, zinc-induced toxicity (SH-SY5Y cells [2])	ROS inhibitory effect ID50 (mouse brain cells)	Increase of SOD activity, compared to control [3]	mortality rate [4]	Induction percentage of convulsion [4]	Initiation time of convulsion [4]	Duration of convulsion [4]	Relaxation percentage (thoracic aorta of rats)	inhibition at 67 µg/mL (thoracic aorta of rats)	Inhibitory percentage compared to negative control [5, 7]	Infarcted volume (Mean ± standard deviation) [5, 7]	Inhibitory percentage compared to negative control [5, 8]	Infarcted volume (Mean ± standard deviation) [5, 8]	inhibitory percentage, oxidative toxicity induced by hydroperoxide (SH-SY5Y cells [6]; 5 μg/ml)	inhibitory percentage, oxidative toxicity induced by hydroperoxide (SH-SY5Y cells [6]; 50 μg/ml)	IC50 (mouse brain cells; 24 h, read-out: ROS inhibitory effect ID50)
[3-(2,4-dioxo-1,4-dihydro-2H-quinazolin-3-yl)propyl]-{4-[3-(2,4-dioxo-1,4-dihydro-2H-quinazolin-3-yl)propylamino]butyl}heptanoic amide [Compound 35]	32.5%	35.7%	9.1 ± 1.8%	140.0 ± 18.6 µg/mL	3.4 ± 7.9	33(2/6) %	100(6/6) %	5.4 ± 1.6 min	33.3 ± 7.3 min	42.6%								
CS(=O)(=O)N(CCCCNCCCn1c(=O)[nH]c2ccccc2c1=O)CCCn1c(=O)[nH]c2ccccc2c1=O [Compound 12, N-[3-(2,4-dioxo-1,4-dihydro-2H-quinazolin-3-yl)propyl]-N-{4-[3-(2,4-dioxo-1,4-dihydro-2H-quinazolin-3-yl)propylamino]butyl}methansulfonamide]	5.7%	2.6%	12.7 ± 4.3%		2.8 ± 1.8	67(4/6) %	100(6/6) %	13.7 ± 6.2 min	39.3 ± 8.8 min		10.9%							
C[N+](C)(C)CCOP(=O)(O)OP(=O)([O-])OC[C@H]1O[C@@H](n2ccc(N)nc2=O)[C@H](O)[C@@H]1O [Citicoline, reference compound]												37.8%	0.28 ± 0.04 cm^3	51.1%	0.22 ± 0.03 cm^3			
CC(=O)N(CCCCN(CCCn1c(=O)[nH]c2ccccc2c1=O)C(C)=O)CCCn1c(=O)[nH]c2ccccc2c1=O [Compound 4, N-(4-{acetyl-[3-(2,4-dioxo-1,4-dihydro-2H-quinazolin-3-yl)propyl]amino}butyl)-N-[3-(2,4-dioxo-1,4-dihydro-2H-quinazolin-3-yl)propyl]acetamide]	22.3%	7.4%			0.6 ± 2.2						7.7%					2.0 ± 0.4%	18.1 ± 2.1%	
O=c1[nH]c2ccccc2c(=O)n1CCCNCCCCNCCCn1c(=O)[nH]c2ccccc2c1=O [Compound 2, 3-(3-{4-[3-(2,4-dioxo-1,4-dihydro-2H-quinazolin-3-yl)propylamino]butylamino}propyl)-1H-quinazoline-2,4-dione]	11.0%	0.7%	21.7 ± 4.1%		2.8 ± 4.0	67(4/6) %	100(6/6) %	12.9 ± 3.7 min	35.7 ± 7.1 min		10.9%							
O=c1[nH]c2ccccc2c(=O)n1CCCNCC=CCNCCCn1c(=O)[nH]c2ccccc2c1=O [Compound 25, 3-(3-{4-[3-(2,4-dioxo-1,4-dihydro-2H-quinazolin-3-yl)propylamino]-2-butenylamino}propyl)-1H-quinazoline-2,4-dione]	35.2%	28.8%			1.6 ± 9.3	83(5/6) %	100(6/6) %	6.2 ± 1.5 min	48.3 ± 5.9 min		20%							104 ± 32.5 µg/mL (≈ 212 µM)
